Test results reported in patent publication US6982348B2, “Aminoethanol derivatives” (Takeda Pharmaceutical Company Limited, priority 2001, dated 2006).

melting point [°C]	Compound
146 to 147	O=C(N[C@H](Cc1cccc(OC(F)(F)C(F)F)c1)[C@@H](O)c1ccc(Oc2ccccc2)cn1)c1ccc(F)c2ccccc12 (racemic) [Example 256, 4-fluoro-N-{(1RS,2RS)-2-hydroxy-2-(5-phenoxypyridin-2-yl)-1-[3-(1,1,2,2-tetrafluoroethoxy)benzyl]ethyl}-1-naphthamide]
165 to 167	O=C(N[C@H](Cc1cccc(C=C(F)C(F)F)c1)[C@@H](O)c1ccc(F)cc1)c1cccc2c1C=CCCC2 (racemic) [Example 335, N-[(1RS,2SR)-2-(4-fluorophenyl)-2-hydroxy-1-[3-(2,3,3-trifluoro-1-propenyl)benzyl]ethyl]-6,7-dihydro-5H-benzo[a]cycloheptene-1-carboxamide]
150 to 155	O=C(N[C@H](Cc1cccc(OC(F)(F)C(F)F)c1)[C@@H](O)c1cccc(F)c1)c1cccc2c1C=CCCC2 (racemic) [Example 235, N-((1RS,2SR)-2-(3-fluorophenyl)-2-hydroxy-1-[3-(1,1,2,2-tetrafluoroethoxy)benzyl]ethyl)-6,7-dihydro-5H-benzo[a][7]annulene-1-carboxamide]
191 to 192	O=C(N[C@H](Cc1ccc(C(F)(F)F)cc1)[C@@H](O)c1ccc(F)cc1)c1cccc2cccc(Br)c12 (racemic) [Example 87, 8-bromo-N-((1RS,2SR)-2-(4-fluorophenyl)-2-hydroxy-1-((4-(trifluoromethyl)phenyl)methyl)ethyl)-1-naphthalenecarboxamide]
223 to 224	O=C(N[C@H](Cc1ccc(C(F)(F)F)cc1)[C@@H](O)c1ccc(F)cc1)c1cccc2cc(F)ccc12 (racemic) [Example 39, 6-fluoro-N-[(1RS,2SR)-2 (4-fluorophenyl)-2-hydroxy-1-[4-(trifluoromethyl)benzyl]ethyl]naphthalene-1-carboxamide]
231 to 232	O=C(N[C@H](Cc1ccc(C(F)(F)F)cc1)[C@@H](O)c1ccc(F)cc1)c1cc([N+](=O)[O-])cc2ccccc12 (racemic) [Example 102, N-[(1RS,2SR)-2-(4-fluorophenyl)-2-hydroxy-1-[4-(trifluoromethyl)benzyl]ethyl]-3-nitronaphthalene-1-carboxamide]
174 to 175	O=C(N[C@H](Cc1cccc(OC(F)(F)C(F)F)c1)[C@@H](O)c1ccc(-c2ccccc2)nc1)c1cccc2c1C=CCCC2 (racemic) [Example 330, N-[(1RS,2SR)-2-hydroxy-2-(6-phenylpyridin-3-yl)-1-[3-(1,1,2,2-tetrafluoroethoxy)benzyl]ethyl]-6,7-dihydro-5H-benzo[a]cycloheptene-1-carboxamide]
210 to 211	COc1ccc(C[C@@H](NC(=O)c2ccc(F)c3ccccc23)[C@@H](O)c2ccc(F)cc2)cc1 (racemic) [Example 149, 4-fluoro-N-((1RS,2SR)-2-(4-fluorophenyl)-2-hydroxy-1-((4-(methyloxy)phenyl)methyl)ethyl)-1-naphthalenecarboxamide]
150 to 151	CC(C)(C)Cc1ccc(C[C@@H](NC(=O)c2ccc(F)c3ccccc23)[C@@H](O)c2cccc(Cl)c2)cc1 (racemic) [Example 345, 4-fluoro-N-[(1RS,2SR)-2-(3-chlorophenyl)-2-hydroxy-1-(4-neopentylbenzyl)ethyl]naphthalene-1-carboxamide]
128 to 129	CC(C)(C)OC(=O)N[C@H](Cc1cccc(OC(F)(F)C(F)F)c1)[C@@H](O)c1ccc(F)nc1 (racemic) [Example 223, 1,1-dimethylethyl(1RS,2SR)-2-(6-fluoropyridin-3-yl)-2-hydroxy-1-((3-(1,1,2,2-tetrafluoroethoxy)phenyl)methyl)ethylcarbamate]
195 to 196	O=Cc1ccccc1-c1ccc([C@H](O)[C@@H](Cc2cccc(OC(F)(F)C(F)F)c2)NC(=O)c2cccc3c2C=CCCC3)cc1 (racemic) [Example 301, N-[(1RS,2SR)-2-(2′-formyl[1,1′-biphenyl]-4-yl)-2-hydroxy-1-[3-(1,1,2,2-tetrafluoroethoxy)benzyl]ethyl]-6,7-dihydro-5H-benzo[a]cycloheptene-1-carboxamide]
119 to 120	CC(C)(C)C(F)(F)c1ccc(C[C@@H](NC(=O)c2cccc3c2C=CCCC3)[C@@H](O)c2cccc(Cl)c2)cc1 (racemic) [Example 380, N-{(1RS,2SR)-2-(3-chlorophenyl)-1-[4-(1,1-difluoro-2,2-dimethylpropyl)benzyl]-2-hydroxyethyl}-6,7-dihydro-5H-benzo[a]cycloheptene-1-carboxamide]
158 to 159	O=C(N[C@H](Cc1cccc(C(F)(F)F)c1)[C@@H](O)c1ccc(F)cc1)c1cccc2ccccc12 (racemic) [Example 136, N-((1RS,2SR)-2-(4-fluorophenyl)-2-hydroxy-1-((3-(trifluoromethyl)phenyl)methyl)ethyl)-1-naphthalenecarboxamide]
193 to 194	O=C(N[C@H](Cc1ccc(C(F)(F)F)cc1)[C@@H](O)c1ccc(F)cc1)c1ccccc1 (racemic) [Example 68, N-[(1RS,2SR)-2-(4-fluorophenyl)-2-hydroxy-1-[4-(trifluoromethyl)benzyl]ethyl]benzamide]
235 to 236	O=C(N[C@H](Cc1ccc(F)cc1)[C@@H](O)c1ccc(C(F)(F)F)cc1)c1ccc(F)c2ccccc12 (racemic) [Example 213, 4-fluoro-N-((1RS,2SR)-1-((4-fluorophenyl)methyl)-2-hydroxy-2-(4-(trifluoromethyl)phenyl)ethyl)-1-naphthalenecarboxamide]
176 to 177	O=C(N[C@H](Cc1ccc(CC(F)(F)C(F)(F)F)cc1)[C@@H](O)c1cccc(Cl)c1)c1cccc2c1C=CCCC2 (racemic) [Example 374, N-[(1RS,2SR)-1-[4-(2,2,3,3,3-pentafluoropropyl)benzyl]-2-(3-chlorophenyl)-2-hydroxyethyl]-6,7-dihydro-5H-benzo[a]cycloheptene-1-carboxamide]
157 to 158	O=C(N[C@H](Cc1cccc(S(=O)(=O)C(F)(F)F)c1)[C@@H](O)c1ccc(F)cc1)c1ccc(F)c2ccccc12 (racemic) [Example 281, 4-fluoro-N-((1RS,2SR)-2-(4-fluorophenyl)-2-hydroxy-1-{3-[(trifluoromethyl)sulfonyl]benzyl}ethyl)-1-naphthamide]
151 to 152	O=C(N[C@H](Cc1ccc(C(F)(F)F)cc1)[C@@H](O)c1ccc(F)cc1)OCc1ccccc1 (racemic) [Example 114, benzyl N-[(1RS,2SR)-2-(4-fluorophenyl)-2-hydroxy-1-[4-(trifluoromethyl)benzyl]ethyl]carbamate]
206 to 207	O=C(N[C@H](Cc1ccc(C(F)(F)F)cc1)[C@@H](O)c1ccoc1)c1ccc(F)c2ccccc12 (racemic) [Example 195, 4-fluoro-N-((1RS,2SR)-2-(3-furanyl)-2-hydroxy-1-((4-(trifluoromethyl)phenyl)methyl)ethyl)-1-naphthalenecarboxamide]
102 to 104	O=C(N[C@H](Cc1ccc(C(F)(F)F)cc1)[C@@H](O)c1ccc(F)cc1)c1c(CSc2ccccc2)ccc2ccccc12 (racemic) [Example 97, N-[(1RS,2SR)-2-(4-fluorophenyl)-2-hydroxy-1-[4-(trifluoromethyl)benzyl]ethyl]-2-[(phenylthio)methyl]naphthalene-1-carboxamide]
130 to 131	COc1ccc(C[C@@H](NC(=O)CCCc2ccccc2)[C@@H](O)c2ccc(F)cc2)cc1 (racemic) [Example 151, N-((1RS,2SR)-2-(4-fluorophenyl)-2-hydroxy-1-((4-(methyloxy)phenyl)methyl)ethyl)-4-phenylbutyramide]
203 to 204	O=C(N[C@H](Cc1ccc(C(F)(F)F)cc1)[C@@H](O)c1ccc(F)cc1)C1CCCCC1 (racemic) [Example 52, N-((1RS,2SR)-2-(4-fluorophenyl)-2-hydroxy-1-((4-(trifluoromethyl)phenyl)methyl)ethyl)cyclohexanecarboxamide]
178 to 180	O=C(N[C@H](Cc1cccc(OC(F)(F)C(F)F)c1)[C@@H](O)c1ccc(F)cc1)c1cccc2c(F)cccc12 (racemic) [Example 334, 5-fluoro-N-[(1RS,2SR)-2-(4-fluorophenyl)-2-hydroxy-1-[3-(1,1,2,2-tetrafluoroethoxy)benzyl]ethyl]naphthalene-1-carboxamide]
151 to 152	O=C(N[C@H](Cc1cccc(OC(F)(F)C(F)F)c1)[C@@H](O)c1ccc(CO)cc1)c1cccc2c1C=CCCC2 (racemic) [Example 327, N-[(1RS,2SR)-2-hydroxy-2-[4-(hydroxymethyl)phenyl]-1-[3-(1,1,2,2-tetrafluoroethoxy)benzyl]ethyl]-6,7-dihydro-5H-benzo[a]cycloheptene-1-carboxamide]
190 to 191	O=C(N[C@H](Cc1ccc(C(F)(F)F)cc1)[C@@H](O)c1ccccc1F)c1ccc(F)c2ccccc12 (racemic) [Example 179, 4-fluoro-N-((1RS,2SR)-2-(2-fluorophenyl)-2-hydroxy-1-((4-(trifluoromethyl)phenyl)methyl)ethyl)-1-naphthalenecarboxamide]
210 to 211	O=C(O)c1ccc([C@@H](O)[C@H](Cc2cccc(OC(F)(F)C(F)F)c2)NC(=O)c2cccc3c2C=CCCC3)cc1 (racemic) [Example 310, 4-[(1RS,2SR)-2-[(6,7-dihydro-5H-benzo[a]cyclohepten-1-ylcarbonyl)amino]-1-hydroxy-3-[3-(1,1,2,2-tetrafluoroethoxy)phenyl]propyl]benzoic acid]
141 to 142	O=C(N[C@H](Cc1cccc(OC(F)(F)C(F)F)c1)[C@@H](O)c1ccc(OCC2CCCCC2)cc1)c1cccc2c1C=CCCC2 (racemic) [Example 246, N-{(1RS,2SR)-2-[4-(cyclohexylmethoxy)phenyl]-2-hydroxy-1-[3-(1,1,2,2-tetrafluoroethoxy)benzyl]ethyl}-6,7-dihydro-5H-benzo[a][7]annulene-1-carboxamide]
184 to 185	O=C(N[C@H](Cc1ccc(C(F)(F)F)cc1)[C@@H](O)c1cccc(Oc2ccccc2)c1)c1ccc(F)c2ccccc12 (racemic) [Example 207, N-((1RS,2SR)-2-hydroxy-2-(3-phenoxyphenyl)-1-((4-(trifluoromethyl)phenyl)methyl)ethyl)-4-fluoro-1-naphthalenecarboxamide]
